# Read-outs that look alike come from different tables or passages of the source.
# How the values were obtained:
# [1] = cited from earlier work
# CEM = assay: Growth inhibition of CEM tumor cells by BrUra; format: cell-based, human; details: 72 hr
# Description: (§1) The five human-derived tumor cell lines shown below were incubated with BrUra at concentrations from 0.5 to 4.5 mM for 72 hours. (Cell lines are available at the ATCC, Manassas, Va.) Separate incubations were conducted in the presence or absence of 50 μM dUrd. Growth inhibition was determined as a percentage of control values for cells incubated without BrUra or dUrd. Consistent with the experiments described in Example 8, co-incubation with dUrd increased cytotoxicity of BrUra in all groups. As expected from their high level of TPase expression, U937 were the only cells with notable toxicity at 0.5 mM, and also the greatest toxicity at 1.5 and 4.5 mM. CEM, MOLT4, and K562 were substantially less affected by incubation with BrUra, consistent with a low intracellular activation rate because of low TPase expression.
# (§2) % Growth Inhibition, Based Upon Control Doubling Time=24 Hr. BrUra Concentrations Ranged from 0.5 to 4.5 mM. Incubations were Conducted for 72 Hr in the Presence or Absence of 50 μM ddUrd.
# MOLT4 = assay: Growth inhibition of MOLT4 tumor cells by BrUra; format: cell-based, human; details: 72 hr
# Description: as §1, §2
# Raji = assay: Growth inhibition of Raji tumor cells by BrUra; format: cell-based, human; details: 72 hr
# Description: as §1, §2
# U937 = assay: Growth inhibition of U937 tumor cells by BrUra; format: cell-based, human; details: 72 hr
# Description: as §1, §2
# K562 = assay: Growth inhibition of K562 tumor cells by BrUra; format: cell-based, human; details: 72 hr
# Description: as §1, §2
# [2] = system: Dunning rat prostatic tumors; assay: 5-X-Ura incorporation into tumor DNA in vivo; details: BrUra intravenously, tumors harvested 105 minutes after injection
# Description: Dunning rat prostatic tumors were implanted (250,000 cells) subcutaneously in 3 rats. Two weeks post-implantation, the tumors had reached 7-20 g in size and the rats weighed about 250 g. At 2 weeks post-implantation, TPase was measured. BrUra was prepared in an aqueous solution, adjusted to pH 9 (the same formulation used clinically for its analog, FUra), and injected intravenously via a tail vein. The rats were sacrificed 105 minutes after the injection, and the tumors were harvested. DNA from the tumor was isolated, digested, and the nucleosides analyzed by HPLC (Klecker, 1994). BrdUrd was found in the DNA of the tumors, replacing 0.15% of the dThd bases.
# TPase [3] = biological target: T1, TPase (Homo sapiens, UniProt P19971); assay: TPase inhibition in tumor cells co-incubated with human liver cytosol ([3H]-dThd incorporation into DNA); format: cell-based; details: BrUra 500 μM, U-937 or MOLT-4 cells with human liver cytosol (S100), 5-35% without BrUra
# T1 sequence (P19971 11-482): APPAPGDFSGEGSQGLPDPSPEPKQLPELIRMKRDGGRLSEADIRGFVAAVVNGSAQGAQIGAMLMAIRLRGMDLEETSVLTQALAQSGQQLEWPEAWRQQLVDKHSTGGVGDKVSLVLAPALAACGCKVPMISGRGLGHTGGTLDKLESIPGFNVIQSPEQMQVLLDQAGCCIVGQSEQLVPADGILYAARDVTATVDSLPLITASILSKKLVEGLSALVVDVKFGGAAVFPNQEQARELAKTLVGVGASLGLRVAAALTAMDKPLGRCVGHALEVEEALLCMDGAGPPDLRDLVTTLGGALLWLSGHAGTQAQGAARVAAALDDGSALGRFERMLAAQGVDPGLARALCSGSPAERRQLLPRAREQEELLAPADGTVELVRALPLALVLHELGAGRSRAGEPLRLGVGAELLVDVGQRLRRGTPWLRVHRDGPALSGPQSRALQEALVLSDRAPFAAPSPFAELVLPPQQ
# Description: [^3H]-dThd (0.02 μM) or [^3H]-dUrd (0.1 μM) was incubated with either U-937 or MOLT-4 tumor cells, and incorporation of [[…] into DNA was measured after 3 hours. Cytosol (S100) was prepared from human liver by differential centrifugation. This cytosol, which contains TPase, was co-incubated with U-937 or MOLT4 tumor cells to simulate the degradation of pyrimidine nucleosides in the body. Incorporation of [^3H]-dThd into DNA was decreased to 5-35% of baseline levels. When BrUra (500 μM) was also added to the incubation mixture, TPase inhibition was observed as increased incorporation of [^3H]-dThd in DNA, back to 39-89% of baseline levels.
# TPase [4] = biological target: T1, TPase; assay: TPase inhibition in intact human hepatocytes ([3H]-Ura formation from [3H]-dUrd); format: cell-based; design: Cryopreserved human hepatocytes were procured from In Vitro Technologies, Inc; host or cells: cryopreserved human hepatocytes; details: [3H]-dUrd 0.2 μM, one hour
# Description: Cryopreserved human hepatocytes were procured from In Vitro Technologies, Inc. (Catonsville, Md.) and processed according to the supplier's instructions. TPase activity was monitored for one hour by measuring formation of [^3H]-Ura from [^3H]-dUrd, 0.2 μM. Co-incubation of tritiated dUrd with 100 μM BrUra inhibited TPase by 48%, and 500 μM of BrUra inhibited TPase by 85%.
# U-937 cells = assay: Enhancement of BrUra trapping into DNA by dR-1-P prodrugs; format: cell-based, human; details: 24 hours, 20 μM BrUra and 20 μM deoxyribonucleoside
# Description: The effect of dR-1-P prodrugs was examined in U-937 cells. Cells were incubated for 24 hours with 20 μM BrUra and 20 μM of six different deoxyribonucleosides. The use of prodrugs for dR-1-P is described as a way of driving the reaction catalyzed by TPase in the direction of thymidine production. As illustrated in the bar chart, in FIG. 3, the maximum enhancement of BrUra trapping in DNA was 24-fold, for dUrd. An increase of 6-fold was found for dIno.
# [5] = system: U-937 cells implanted subcutaneously in nude mice; assay: Incorporation of [3H]-BrUra into tumor DNA in vivo, modulation with eniluracil; details: eniluracil 2 mg/kg i.p. thirty minutes prior to i.v. [3H]-BrUra, 24 hours
# Description: U-937 cells (ATCC; Manassas, Va.) were implanted subcutaneously in nude mice. When tumors grew to about 0.5 gram, [^3H]-BrUra was injected i.v. One set of mice received eniluracil, 2 mg/kg, injected i.p. thirty minutes prior to i.v. [3H]-BrUra, and the other set received no treatment prior to [^3H]-BrUra i.v. Both sets of mice were killed 24 hours later, and tumors and blood removed. DNA from tumors was extracted and analyzed using our established techniques (Klecker et al., 1994). [^3H]-BrdUrd was found in DNA in tumors by radiochromatography, indicating conversion of [^3H]-BrUra in vivo, similar to our results for cell culture.
smiles,measurement,setting,value
"O=c1[nH]cc(F)c(=O)[nH]1 [5-FUra, 5-fluorouracil]",increase in 5-FUra exposure,[1]; presence versus absence of eniluracil,50- to 100 fold
same,Plasma clearance of 5-FUra,[1]; with eniluracil,0.1 L/min
same,recovered unchanged in the urine,[1]; with eniluracil,77%
same,tolerated dose upon continuous dosing,[1]; with eniluracil,2 mg/day per square meter of body surface
same,Plasma clearance of 5-FUra,[1]; without eniluracil,5.0 L/min
same,recovered unchanged in the urine,[1]; without eniluracil,less than 10%
"O=c1[nH]cc(Br)c(=O)[nH]1 [BrUra, bromouracil]",% Growth Inhibition,"CEM; BrUra 0.5 mM, with 50 μM dUrd",13%
same,% Growth Inhibition,"CEM; BrUra 0.5 mM, without dUrd",6%
same,% Growth Inhibition,"CEM; BrUra 1.5 mM, with 50 μM dUrd",65%
same,% Growth Inhibition,"CEM; BrUra 1.5 mM, without dUrd",23%
same,% Growth Inhibition,"CEM; BrUra 4.5 mM, with 50 μM dUrd",95%
same,% Growth Inhibition,"CEM; BrUra 4.5 mM, without dUrd",89%
same,% Growth Inhibition,"MOLT4; MOLT4, BrUra 0.5 mM, with 50 μM dUrd",8%
same,% Growth Inhibition,"MOLT4; MOLT4, BrUra 0.5 mM, without dUrd",6%
same,% Growth Inhibition,"MOLT4; MOLT4, BrUra 1.5 mM, with 50 μM dUrd",25%
same,% Growth Inhibition,"MOLT4; MOLT4, BrUra 1.5 mM, without dUrd",26%
same,% Growth Inhibition,"MOLT4; MOLT4, BrUra 4.5 mM, with 50 μM dUrd",85%
same,% Growth Inhibition,"MOLT4; MOLT4, BrUra 4.5 mM, without dUrd",66%
same,% Growth Inhibition,"Raji; BrUra 0.5 mM, with 50 μM dUrd",9%
same,% Growth Inhibition,"Raji; BrUra 0.5 mM, without dUrd",2%
same,% Growth Inhibition,"Raji; BrUra 1.5 mM, with 50 μM dUrd",24%
same,% Growth Inhibition,"Raji; BrUra 1.5 mM, without dUrd",27%
same,% Growth Inhibition,"Raji; BrUra 4.5 mM, with 50 μM dUrd",67%
same,% Growth Inhibition,"Raji; BrUra 4.5 mM, without dUrd",65%
same,% Growth Inhibition,"U937; U937, BrUra 0.5 mM, with 50 μM dUrd",28%
same,% Growth Inhibition,"U937; U937, BrUra 0.5 mM, without dUrd",16%
same,% Growth Inhibition,"U937; U937, BrUra 1.5 mM, with 50 μM dUrd",77%
same,% Growth Inhibition,"U937; U937, BrUra 1.5 mM, without dUrd",47%
same,% Growth Inhibition,"U937; U937, BrUra 4.5 mM, with 50 μM dUrd",100%
same,% Growth Inhibition,"U937; U937, BrUra 4.5 mM, without dUrd",100%
same,% Growth Inhibition,"K562; K562, BrUra 0.5 mM, with 50 μM dUrd",−6%
same,% Growth Inhibition,"K562; K562, BrUra 0.5 mM, without dUrd",−7%
same,% Growth Inhibition,"K562; K562, BrUra 1.5 mM, with 50 μM dUrd",28%
same,% Growth Inhibition,"K562; K562, BrUra 1.5 mM, without dUrd",13%
same,% Growth Inhibition,"K562; K562, BrUra 4.5 mM, with 50 μM dUrd",77%
same,% Growth Inhibition,"K562; K562, BrUra 4.5 mM, without dUrd",57%
same,"BrdUrd found in DNA of the tumors, replacing dThd bases",[2],0.15%
same,"incorporation of [3H]-dThd in DNA, of baseline levels",TPase [3],39-89%
same,TPase inhibition,TPase [4]; 100 μM BrUra,48%
same,TPase inhibition,TPase [4]; 500 μM BrUra,85%
"OC[C@H]1O[C@@H](n2cnc3c(O)ncnc32)C[C@@H]1O [dIno, deoxyinosine]",enhancement of BrUra trapping in DNA,U-937 cells,6 fold
O=c1ccn([C@H]2C[C@H](O)[C@@H](CO)O2)c(=O)[nH]1 [dUrd],enhancement of BrUra trapping in DNA,U-937 cells,24 fold
C#Cc1c[nH]c(=O)[nH]c1=O [eniluracil],increase of incorporation of radioactivity into DNA from [3H]-BrUra,[5],five-fold

# From patent US20040157867A1, “Pyrimidine phosphorylase as a target for imaging and therapy” (priority 2004, published 2004)
